Measurements from ChEMBL document CHEMBL1201862, “PubChem BioAssay data set” (2004).
Active and inactive are the calls of the source.

Experiments:
Vero = test: cells; type: functional; conditions: Chlorocebus sabaeus
[1] = molecular target: T1, Calpain-2 catalytic subunit (Sus scrofa, UniProt P43367); test: pig calpain II inhibitor potency, dose response, biochemical, fluorogenic peptide substrate (AID 1420); type: functional
T1 sequence (P43367 whole entry): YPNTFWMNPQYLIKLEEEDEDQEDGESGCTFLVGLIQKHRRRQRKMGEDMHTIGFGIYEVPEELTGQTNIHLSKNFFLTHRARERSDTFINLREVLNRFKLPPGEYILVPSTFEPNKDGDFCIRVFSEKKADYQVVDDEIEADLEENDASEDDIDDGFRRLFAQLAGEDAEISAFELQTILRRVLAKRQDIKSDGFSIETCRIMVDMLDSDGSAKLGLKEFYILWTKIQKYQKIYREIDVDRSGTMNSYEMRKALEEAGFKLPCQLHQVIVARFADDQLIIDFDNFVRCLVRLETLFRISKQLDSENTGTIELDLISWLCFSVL

BJ [2] = test: cytotoxicity toward BJ-TERT fibroblasts, dose response, cell-based, RAS-independent, luminescence (AID 1933); type: functional; conditions: Homo sapiens
BJ [3] = test: cells; type: functional, cell-based; conditions: Homo sapiens
BJ [4] = test: cytotoxicity toward BJ-TERT-LT-ST fibroblasts, dose response, cell-based, RAS-independent, luminescence (AID 1935); type: functional; conditions: Homo sapiens;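 further: BJ fibroblasts immortalized with TERT plus LT and ST oncogenes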
[5] = cytotoxicity toward DRD oncogenic fibroblasts, dose response, cell-based, non-viral oncogenic, luminescence (AID 1934); type: functional; conditions: Homo sapiens
[6] = molecular target: T2, Replicative DNA helicase DnaB (Mycobacterium tuberculosis, UniProt P9WMR3); test: DnaB intein splicing inhibitors, dose response, biochemical, cell-free fluorescence (AID 449749); type: functional
T2 sequence (P9WMR3 whole entry): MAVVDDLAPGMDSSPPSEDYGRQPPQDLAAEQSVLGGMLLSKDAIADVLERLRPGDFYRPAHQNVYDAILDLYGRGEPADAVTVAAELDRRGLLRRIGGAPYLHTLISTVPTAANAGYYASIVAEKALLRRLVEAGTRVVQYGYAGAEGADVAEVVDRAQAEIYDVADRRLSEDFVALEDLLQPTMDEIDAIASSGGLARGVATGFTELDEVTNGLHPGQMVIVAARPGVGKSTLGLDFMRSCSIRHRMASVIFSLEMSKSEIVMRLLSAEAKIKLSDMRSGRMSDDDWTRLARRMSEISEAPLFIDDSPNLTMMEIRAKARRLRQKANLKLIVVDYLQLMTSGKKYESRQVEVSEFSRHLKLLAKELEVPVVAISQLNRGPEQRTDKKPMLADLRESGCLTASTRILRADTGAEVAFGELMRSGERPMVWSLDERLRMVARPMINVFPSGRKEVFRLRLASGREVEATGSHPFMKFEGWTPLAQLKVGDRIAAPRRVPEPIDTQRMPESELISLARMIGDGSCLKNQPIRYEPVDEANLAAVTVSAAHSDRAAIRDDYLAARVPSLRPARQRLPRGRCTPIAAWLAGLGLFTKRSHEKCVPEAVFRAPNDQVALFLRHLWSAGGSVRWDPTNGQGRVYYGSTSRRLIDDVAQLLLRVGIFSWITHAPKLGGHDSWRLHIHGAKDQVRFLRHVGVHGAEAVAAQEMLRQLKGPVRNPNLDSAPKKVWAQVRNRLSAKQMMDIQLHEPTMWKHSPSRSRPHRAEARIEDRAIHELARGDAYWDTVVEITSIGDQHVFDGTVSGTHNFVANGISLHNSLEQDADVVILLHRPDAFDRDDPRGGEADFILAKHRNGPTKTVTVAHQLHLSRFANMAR

Protein RecA = molecular target: T3, Protein RecA (Mycobacterium tuberculosis, UniProt P9WHJ3); test: Fluorescence Cell-Free Homogeneous Dose Retest to Identify Inhibitors of RecA-Intein Splicing Activity. [Related pubchem assays (depositor defined):AID2097, AID2223, AID489010, AID492950]; type: functional
T3 sequence (P9WHJ3 whole entry): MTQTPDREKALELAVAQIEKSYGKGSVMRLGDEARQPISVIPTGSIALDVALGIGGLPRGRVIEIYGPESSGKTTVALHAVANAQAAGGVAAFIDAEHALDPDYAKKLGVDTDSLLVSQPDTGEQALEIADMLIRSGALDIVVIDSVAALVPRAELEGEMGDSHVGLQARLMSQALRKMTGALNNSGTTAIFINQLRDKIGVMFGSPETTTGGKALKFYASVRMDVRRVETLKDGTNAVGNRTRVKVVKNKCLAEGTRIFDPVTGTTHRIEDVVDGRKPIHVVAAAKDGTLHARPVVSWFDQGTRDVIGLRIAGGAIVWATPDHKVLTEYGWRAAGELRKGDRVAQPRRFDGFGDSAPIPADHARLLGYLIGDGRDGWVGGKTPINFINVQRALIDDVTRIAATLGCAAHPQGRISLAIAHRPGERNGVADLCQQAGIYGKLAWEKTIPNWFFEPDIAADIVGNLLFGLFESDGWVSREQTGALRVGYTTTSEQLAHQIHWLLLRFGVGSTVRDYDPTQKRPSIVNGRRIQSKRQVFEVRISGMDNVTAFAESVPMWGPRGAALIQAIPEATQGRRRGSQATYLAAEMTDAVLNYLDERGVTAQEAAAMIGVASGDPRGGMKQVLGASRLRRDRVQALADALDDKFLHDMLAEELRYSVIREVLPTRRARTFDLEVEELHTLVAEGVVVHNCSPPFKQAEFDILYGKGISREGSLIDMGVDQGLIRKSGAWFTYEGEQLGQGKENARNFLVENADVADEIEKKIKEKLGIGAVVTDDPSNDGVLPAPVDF

[7] = inhibitors of HIV Env-driven cell fusion, dose response, cherry-pick (AID 652057); type: functional, cell-based
[8] = inhibitors of clade B AD8 Env fusion, dose response, cell-based, cherry-pick (AID 652062); type: functional;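 further: luciferase signal from cell-cell fusion driven by HIV-1 clade B AD8 Env; potency is for inhibitors of fusion seen as a drop in luminescence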
[9] = Luminescence Cell-Based Dose Confirmation HTS to Identify Activators of 5'UTR Stem-Loop Driven Alpha-Synuclein mRNA Translation in H4 Neuroglioblastoma Cells. [Related pubchem assays: 1829 (Project Summary), 1814 (Primary HTS)]; type: functional
[10] = Luminescence Cell-Based Dose Response HTS to Identify Activators of Luciferase Translation or Activity in H4 […] Cells. [Related pubchem assays: 1829 (Project Summary), 1814 (Primary HTS)]; type: functional
H4 = test: Luminescence Cell-Based Dose Response HTS to Identify Activators of 5'UTR Stem-Loop Driven Prion Protein mRNA Translation in H4 Neuroglioblastoma Cells. [Related pubchem assays: 1829 (Project Summary), 1814 (Primary HTS)]; type: functional; conditions: Homo sapiens
[11] = molecular target: FAD-linked sulfhydryl oxidase ALR (Homo sapiens, UniProt P55789); test: inhibitors of human ALR sulfhydryl oxidase, dose response, biochemical, H2O2 detection, luminescence, cherry-pick (AID 493248)
[12] = NIH-3T3 fibroblast cytotoxicity, dose response, cytotoxicity control, cell-based, fluorescence, Alamar Blue, secondary assay (AID 2327); type: functional;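 further: NIH-3T3 mouse fibroblasts cultured with fluconazole at 8 µg/mL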
[13] = system: Streptococcus sp. 'group A'; test: growth inhibition of control SK(-) GAS strain, dose response, counter-screen for streptokinase expression inhibitor project, luminescence, kanamycin, BacTiterGlo, confirmation (AID 1900); type: functional, organism-based
Streptococcus = test: Group A Streptococcus viability loss, dose response, counter-screen for streptokinase expression inhibitor project, luminescence, BacTiterGlo (AID 1915); type: functional, organism-based;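 further: potency for reduction of bacterial viability or growth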
P388/ADR = test: cells; type: functional; conditions: Mus musculus
SN12K1 = test: cells; type: functional; conditions: Homo sapiens
P388 = test: cells; type: functional; conditions: Mus musculus
INS1 = test: beta cell apoptosis inhibitors, cytokine rescue, dose response, luminescence, retest (AID 449756); type: functional, cell-based; conditions: Rattus norvegicus;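 further: cell death triggered by IL-1 beta plus TNF-alpha plus IFN-gamma mixture; protective hits raise ATP signal compared with cytokine alone wells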

FAD-linked sulfhydryl oxidase ALR, sequence (P55789 whole entry): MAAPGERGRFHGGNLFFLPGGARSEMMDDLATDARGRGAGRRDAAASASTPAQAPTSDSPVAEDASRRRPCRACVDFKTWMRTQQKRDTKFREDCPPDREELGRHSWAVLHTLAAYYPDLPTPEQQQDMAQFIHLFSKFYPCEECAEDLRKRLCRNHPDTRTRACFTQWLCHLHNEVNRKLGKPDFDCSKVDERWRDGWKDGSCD

COc1cccc(/C=C2\SC(=S)N(CCC(=O)N3CCCCC3CCO)C2=O)c1 (stereo not drawn)
CC50 (Vero): 15.9 µM (active)

CSc1ncccc1C(=O)OCC(=O)Nc1ccc2c(c1)OCO2
IC50 [1]: < 0.4 µM (not active)

CCOc1ccc(OCc2ccc(C(=O)N3CCCC(C)C3)cc2)cc1 (stereo not drawn)
IC50 [1]: 10.5 µM (active)

O=Cc1[nH]c2ccccc2c1N(C(=O)CCl)c1ccc([N+](=O)[O-])cc1
EC50 (BJ [2]): 5.65 µM (inconclusive)
EC50 (BJ [3]): 7.89 µM (active)
EC50 (BJ [4]): 4.03 µM (active)
EC50 [5]: 5.75 µM (inconclusive)

CCn1c(COc2ccc(Cl)cc2)nnc1SC1CCc2ccccc2C1=O (stereo not drawn)
IC50 [1]: 7.24 µM (not active)
AC50 [6]: 9.31 µM (active)
EC50 (Protein RecA): 25.4 µM (active)

COc1cccc(CNc2ccc([N+](=O)[O-])c(NCC(=O)O)n2)c1
IC50 [1]: 5.38 µM (active)

O=C(Nc1ccccc1N1CCCCC1)c1ccc(-c2ccc(Cl)cc2)o1
EC50 (BJ [2]): 3.11 µM (inconclusive)
EC50 (BJ [3]): 40.9 µM (inconclusive)
EC50 (BJ [4]): 46.9 µM (inconclusive)
EC50 [5]: 2.91 µM (active)

O=C(Nc1ccc(Oc2ccccc2)nc1)C1CCCCN1Cc1ccco1 (stereo not drawn)
EC50 (BJ [2]): 8.7 µM (inconclusive)
EC50 (BJ [3]): 35.3 µM (active)
EC50 (BJ [4]): 5.04 µM (inconclusive)
EC50 [5]: 17.3 µM (inconclusive)

Cc1ccc(CNc2nc(Cl)c(C#N)s2)cc1
IC50 [1]: 4.33 µM (not active)

CC(C)(C)c1ccc(C(=O)NC(=S)Nc2ccc(N3CCOCC3)cc2)cc1
EC50 (BJ [2]): 18.2 µM (active)
EC50 (BJ [3]): 148 µM (inconclusive)
EC50 (BJ [4]): > 150 µM (not active)
EC50 [5]: > 150 µM (not active)

CCOC(=O)c1sc(SCC(=O)Nc2ccc(N(C)C)cc2)nc1N
IC50 [1]: 30.7 µM (not active)

CCCc1cc(-c2nnc(S)n2CC(C)C)cs1
IC50 [1]: > 50 µM (not active)

CCOc1ccccc1CNC(=O)c1cn(C)c(=O)c2c1c1ccccc1n2C
CC50 (Vero): > 25 µM (active)

O=C(NCC(=O)N(c1ccc(F)cc1)C(C(=O)NC1CCCC1)c1cccnc1)c1cccs1 (stereo not drawn)
IC50 [1]: < 0.4 µM (not active)

Cc1noc(C)c1COC(=O)CNC(=O)c1cccc(F)c1
IC50 [1]: > 50 µM (not active)

CCC(CC)c1nnc(NC(=O)CC(C)c2ccccc2)s1 (stereo not drawn)
EC50 (BJ [2]): > 150 µM (not active)
EC50 (BJ [3]): > 150 µM (not active)
EC50 (BJ [4]): > 75 µM (inconclusive)
EC50 [5]: > 150 µM (not active)

Cc1cccc(OCCC(=O)Nc2ccc(C)c(S(=O)(=O)N3CCCCC3)c2)c1
IC50 [1]: 5.33 µM (not active)

CC1=Nc2cc(C(=O)NCCCOC(C)C)ccc2Sc2ccccc21
EC50 (BJ [2]): 15.4 µM (active)
EC50 (BJ [3]): 57.5 µM (active)
EC50 (BJ [4]): > 150 µM (inconclusive)
EC50 [5]: 18.6 µM (active)

C=COC(=O)NC1CCc2cc(OC)c(OC)c(OC)c2-c2ccc(SC)c(=O)cc21 (stereo not drawn)
CC50 (Vero): < 0.05 µM (active)

Cc1ccc(S(=O)(=O)N2C[C@H]3n4c(=O)ccc(=O)n4C[C@H](OC(=O)NCC4CCCCC4)[C@@]3(O)C2)cc1
CC50 (Vero): > 25 µM (active)

CN(C)c1n/c(=N/c2cccc(Cl)c2)ss1
CC50 (Vero): 21.6 µM (active)

C[C@@H]1CN([C@@H](C)CO)C(=O)c2cccc(NC(=O)C3CCCCC3)c2O[C@H]1CN(C)CC1CCCCC1
AC50 [7]: 3.12 µM (active)
AC50 [8]: 67.1 µM (active)

C[C@H](CO)N1C[C@H](C)[C@H](CN(C)S(=O)(=O)c2ccc(F)cc2)Oc2ccc(NS(=O)(=O)c3ccccc3)cc2CC1=O
AC50 [7]: 16.8 µM (active)
AC50 [8]: 28.2 µM (active)

C[C@H](C(=O)N(C)C[C@@H]1OCc2ccccc2-c2ccccc2C(=O)N([C@@H](C)CO)C[C@@H]1C)c1ccccc1
AC50 [7]: < 0.26 µM (active)
AC50 [8]: < 0.26 µM (active)

C[C@H](CO)N1C[C@H](C)[C@H](CN(C)S(=O)(=O)c2cccs2)Oc2ccc(NC(=O)C3CCCCC3)cc2CC1=O
AC50 [7]: 0.436 µM (active)
AC50 [8]: 5.23 µM (active)

CCCCCC(=O)Nc1ccc(N2CCN(CC)CC2)c(Cl)c1
EC50 [9]: 15.5 µM (active)
EC50 [10]: 5.11 µM (active)
EC50 (H4): 5.08 µM (active)
IC50 [1]: 18.8 µM (not active)

O=C1Cc2c(-c3ccccc3)cc(-c3cccc(Cl)c3)nc2-c2ccccc2N1
CC50 (Vero): 11.4 µM (active)

Cc1ccc(NCC(=O)N/N=C/c2c[nH]c3ccccc23)cc1
IC50 [1]: 16.1 µM (not active)

CC(=O)Nc1ccc(C2=NN(C)/C(=N/Cc3ccccc3)SC2)cc1
IC50 [1]: 8.93 µM (not active)
AC50 [11]: 3.9 µM (active)

CCCCCOc1ccc(/C(C)=N/NC2=NCCN2)cc1
CC50 (Vero): > 25 µM (active)

CC(=O)O[C@H]1C[C@]2(O)[C@@H]3CC[C@@H]4C[C@@H](O)CC[C@]4(C)[C@H]3CC[C@]2(C)[C@H]1C1=CC(=O)OC1
CC50 (Vero): 0.46 µM (active)

Cc1nc(NC(=O)c2ccco2)sc1C(=O)O
EC50 (BJ [2]): 7.4 µM (active)
EC50 (BJ [3]): 4.14 µM (active)
EC50 (BJ [4]): > 150 µM (inconclusive)
EC50 [5]: 10.3 µM (active)

CCCCCCCCCCCC1=C(O)C(=O)C=C(O)C1=O [EMBELIN]
EC50 [12]: 5.02 µM (inconclusive)
EC50 [13]: 1.58 µM (active)
EC50 (Streptococcus): 3.32 µM (active)
GI50 (P388/ADR): 9.66 µM (inactive)
GI50 (SN12K1): 3.74 µM (inactive)
GI50 (P388): 1.78 µM (inactive)

COc1ccc2cc1Oc1ccc(cc1)C[C@H]1c3cc(c(OC)cc3CCN1C)Oc1c(O)c(OC)cc3c1[C@H](C2)N(C)CC3 [FANGCHINOLINE]
AC50 (INS1): 5.84 µM (active)
GI50 (P388/ADR): 2.58 µM (inactive)
GI50 (SN12K1): 18.3 µM (inactive)
GI50 (P388): 2 µM (inactive)
